Reference: patent US6087119A, “Method for determining the catalytic activity of factor IXa” (Roche Diagnostics GmbH, priority 1996, dated 2000)
Several values for one entry are separate records, joined by “and”; a condition that tells them apart may be missing. Identical values can stand only once. Like-named read-outs stand apart in the source and are kept apart here.

What was measured:
[1] = biological target: FXIIa (human) (Homo sapiens, UniProt P00748); conditions: FXIIa 0.0045 U/ml, MeSO2-D-HHT-Gly-Arg-pNA 1.02 mmol/l, pH 7.4
Source text: FXIIa Test Mixture (Concentration in the Test)
(§1) 42 mmol/l Tris-HCl, pH 7.4
(§2) 1.02 mmol/l MeSO2 -D-HHT-Gly-Arg-pNA
0.0045 U/ml FXIIa (human)
(§3) 0-50% ethanol or ethylene glycol

[2] = biological target: thrombin (bovine) (Bos taurus, UniProt P00735); conditions: thrombin 0.045 μmol/l, MeSO2-D-HHT-Gly-Arg-pNA 1.02 mmol/l, pH 7.4
Source text: Thrombin Test Mixture (Concentration in the Test)
as §1, §2
0.045 μmol/l thrombin (bovine)
as §3

[3] = biological target: FXIa (human) (Homo sapiens, UniProt P03951); conditions: FXIa 0.0012 μmol/l, MeSO2-D-HHT-Gly-Arg-pNA 1.02 mmol/l, pH 7.4
Source text: FXIa Test Mixture (Concentration in the Test)
as §1, §2
0.0012 μmol/l FXIa (human)
as §3

[4] = biological target: T1, rFIXa (human) (Homo sapiens, UniProt P00740); conditions: fluorogenic MeSO2-D-CHA-Gly-Arg-AMC 0.51 mmol/l, 0.08 μmol/l rFIXa, pH 7.4
Source text: The stimulation of human rFIXa by ethanol and ethylene glycol was examined using the peptide substrates MeSO2 -D-HHT-Gly-Arg-pNA (Pefachrom tPA, Pentapharm Ltd., Basel, Switzerland), MOC-D-Nle-Gly-Arg-pNA (Chromozym X, Boehringer Mannheim GmbH, Mannheim, Germany, Cat.No. 789763), MeSO2 -D-CHG-Gly-Arg-pNA (Pentapharm Ltd., Basel, Switzerland), MeSO2 -D-CHA-Gly-Arg-pNA (Pentapharm Ltd., Basel, Switzerland) and MeSO2 -D-CHA-Gly-Arg-AMC (Pentapharm Ltd., Basel, Switzerland).
Test Mixture Fluorogenic (Concentration in the Test)
0.51 mmol/l MeSO2 -D-CHA-Gly-Arg-AMC
0.08 μmol/l rFIXa (human)
Target sequence in this assay (P00740 227-461): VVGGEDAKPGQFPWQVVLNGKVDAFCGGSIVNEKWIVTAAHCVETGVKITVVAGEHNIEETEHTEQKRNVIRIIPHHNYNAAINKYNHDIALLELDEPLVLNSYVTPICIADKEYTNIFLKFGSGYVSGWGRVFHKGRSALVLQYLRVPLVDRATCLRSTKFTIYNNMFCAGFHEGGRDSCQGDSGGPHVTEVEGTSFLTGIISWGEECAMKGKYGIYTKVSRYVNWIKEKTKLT
Target sequence in this assay (P00740 131-226): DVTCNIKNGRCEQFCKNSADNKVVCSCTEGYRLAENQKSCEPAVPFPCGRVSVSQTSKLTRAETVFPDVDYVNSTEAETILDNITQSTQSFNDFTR

[5] = biological target: FXa (bovine) (Bos taurus, UniProt P00743); conditions: FXa 0.088 μmol/l, MeSO2-D-HHT-Gly-Arg-pNA 1.02 mmol/l, pH 7.4
Source text: FXa Test Mixture (concentration in the Test)
as §1, §2
0.088 μmol/l FXa (bovine)
as §3

[6] = biological target: T1, rFIXa (human); test: Influence of alcohols and organic solvents on the activity of rFIXa, chromogenic peptide substrates; assay type: biochemical; parameters: coding for the FIX protease domain from amino acid position 181 to 415; Met (ATG start codon) (N); made in house; conditions: for V/V0: pH 7.4
Method: The reaction was started by adding FIXa.
MeSO2 -D-HHT-Gly-Arg-pNA→MeSO2 -D-HHT-Gly-Arg+pNA measurement signal: pNA
0.48 μmol/l rFIXa (human)
0-50% (alcohol or organic solvent)
The ratio V/V0 was calculated to illustrate the stimulation of the catalytic activity of rFIXa.
V0, reaction rate without additives
V, reaction rate in the presence of additives
Test Mixture Chromogenic (Concentration in the Test)
Target sequence in this assay (P00740 227-461 limits assumed): as the sequence (P00740 227-461) above
Target sequence in this assay (P00740 131-226 partner limits assumed): as the sequence (P00740 131-226) above

[7] = biological target: plasma kallikrein (human) (Homo sapiens, UniProt P03952); conditions: 10-20% ethanol
Source text: Plasma Kallikrein Test Mixture (Concentration in the Test)
as §1, §2
0.0176 U/ml plasma kallikrein (human)
as §3

[8] = biological target: native FIXa (human) (Homo sapiens, UniProt P00740); conditions: pH 7.4; for V/V0: MeSO2-D-HHT-Gly-Arg-pNA 1.02 mmol/l, 0.14 μmol/l native FIXa
Method: The FIXa test was carried out with recombinantly produced native human FIXa as a sample and the peptide substrate MeSO2 -D-HHT-Gly-Arg-pNA (Pefachrom tPA, Pentapharm Ltd., Basel, Switzerland) or other chromogenic/fluorogenic substrates of the R-D-Xxx-Gly-Arg-pNA type (EP-B 0 034 122) in Tris-HCl buffer and the substances to be tested (alcohol, solvents and inhibitors). The reaction was started by adding FIXa.
The test mixture was incubated at room temperature (25° C.) in a microtitre plate and the change in absorbance (ΔA/min) was measured at 405 nm using an ELISA reader. The activity and the kinetic constants were determined from the linear initial slope according to the Michaelis-Menten equation.
as §2
0.14 μmol/l native FIXa (human)
as §3
FIXa Test Mixture (Concentration in the Test)

Chain of FXIa (human) (P03951 388-625 limits assumed): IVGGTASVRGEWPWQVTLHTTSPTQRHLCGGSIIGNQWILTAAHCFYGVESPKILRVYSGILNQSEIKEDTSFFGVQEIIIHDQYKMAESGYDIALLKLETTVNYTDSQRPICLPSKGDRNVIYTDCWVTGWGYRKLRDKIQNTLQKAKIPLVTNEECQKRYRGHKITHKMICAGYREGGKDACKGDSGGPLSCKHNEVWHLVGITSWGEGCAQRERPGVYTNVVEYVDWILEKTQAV
Chain of FXIa (human) (P03951 19-387 partner limits assumed): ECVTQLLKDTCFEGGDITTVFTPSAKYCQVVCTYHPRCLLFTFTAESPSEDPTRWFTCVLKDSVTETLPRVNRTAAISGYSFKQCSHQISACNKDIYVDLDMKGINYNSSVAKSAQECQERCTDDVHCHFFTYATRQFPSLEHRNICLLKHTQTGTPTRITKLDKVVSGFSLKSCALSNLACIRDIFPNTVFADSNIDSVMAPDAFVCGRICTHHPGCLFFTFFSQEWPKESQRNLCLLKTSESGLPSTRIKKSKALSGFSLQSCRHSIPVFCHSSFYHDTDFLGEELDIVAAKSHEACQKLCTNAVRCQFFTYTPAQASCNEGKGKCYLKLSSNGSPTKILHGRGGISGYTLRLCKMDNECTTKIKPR
Chain of FXa (bovine) (P00743 234-492 limits assumed): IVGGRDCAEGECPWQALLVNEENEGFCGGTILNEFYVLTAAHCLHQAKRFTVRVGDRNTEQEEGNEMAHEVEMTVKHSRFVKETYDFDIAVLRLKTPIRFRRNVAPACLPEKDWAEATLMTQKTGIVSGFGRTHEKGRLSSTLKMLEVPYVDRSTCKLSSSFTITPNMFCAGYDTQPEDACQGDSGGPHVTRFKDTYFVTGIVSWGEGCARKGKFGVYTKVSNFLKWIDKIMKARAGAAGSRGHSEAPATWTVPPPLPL
Chain of FXa (bovine) (P00743 41-180 partner limits assumed): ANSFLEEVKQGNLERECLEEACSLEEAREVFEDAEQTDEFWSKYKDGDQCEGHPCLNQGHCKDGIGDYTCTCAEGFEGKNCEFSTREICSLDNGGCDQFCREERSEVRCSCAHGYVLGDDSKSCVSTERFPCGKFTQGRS
Chain of native FIXa (human) (P00740 227-461 limits assumed): as the sequence (P00740 227-461) above
Chain of native FIXa (human) (P00740 47-191 partner limits assumed): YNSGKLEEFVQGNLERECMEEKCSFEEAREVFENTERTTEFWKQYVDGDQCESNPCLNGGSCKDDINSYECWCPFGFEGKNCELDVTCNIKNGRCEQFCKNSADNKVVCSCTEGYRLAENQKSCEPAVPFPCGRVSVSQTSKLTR
Chain of FXIIa (human) (P00748 373-615 limits assumed, other chains not shown): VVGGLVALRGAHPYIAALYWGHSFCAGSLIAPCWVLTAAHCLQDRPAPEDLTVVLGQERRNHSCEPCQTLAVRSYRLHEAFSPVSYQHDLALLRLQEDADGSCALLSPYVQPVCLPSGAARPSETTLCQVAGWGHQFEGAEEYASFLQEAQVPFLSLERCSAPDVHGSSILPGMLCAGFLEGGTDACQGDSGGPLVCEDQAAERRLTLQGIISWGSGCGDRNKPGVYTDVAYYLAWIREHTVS
Chain of plasma kallikrein (human) (P03952 391-638 limits assumed): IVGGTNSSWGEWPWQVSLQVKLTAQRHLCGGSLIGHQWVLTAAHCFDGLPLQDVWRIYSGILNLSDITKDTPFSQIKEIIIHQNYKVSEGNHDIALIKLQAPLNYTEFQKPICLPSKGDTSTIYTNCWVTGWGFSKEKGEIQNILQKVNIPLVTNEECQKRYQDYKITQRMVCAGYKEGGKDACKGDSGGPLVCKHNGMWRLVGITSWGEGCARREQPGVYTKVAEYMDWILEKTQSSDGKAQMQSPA
Chain of plasma kallikrein (human) (P03952 20-390 partner limits assumed): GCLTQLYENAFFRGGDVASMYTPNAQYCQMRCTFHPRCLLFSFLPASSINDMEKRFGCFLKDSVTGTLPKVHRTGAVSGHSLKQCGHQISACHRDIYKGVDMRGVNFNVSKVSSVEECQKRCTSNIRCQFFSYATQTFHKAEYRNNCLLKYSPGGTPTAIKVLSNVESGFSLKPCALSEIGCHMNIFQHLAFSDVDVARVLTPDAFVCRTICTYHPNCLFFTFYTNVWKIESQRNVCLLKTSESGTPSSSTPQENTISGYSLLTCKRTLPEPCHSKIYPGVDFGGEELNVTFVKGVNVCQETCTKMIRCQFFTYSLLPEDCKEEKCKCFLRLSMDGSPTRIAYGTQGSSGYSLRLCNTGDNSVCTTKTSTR

Compound: CCO [Ethanol]
- V/V0 ([1]; 8% alcohol): 0.904
- V/V0 ([1]; 16% alcohol): 0.579
- V/V0 ([1]; 25% alcohol): 0.187
- V/V0 ([1]; 33% alcohol): 0.051
- V/V0 ([1]; 41% alcohol): 0.009
- V/V0 ([1]; 50% alcohol): 0
- V/V0 ([2]; 8% alcohol): 0.846
- V/V0 ([2]; 16% alcohol): 0.685
- V/V0 ([2]; 25% alcohol): 0.507
- V/V0 ([2]; 33% alcohol): 0.343
- V/V0 ([2]; 41% alcohol): 0.184
- V/V0 ([2]; 50% alcohol): 0.087
- V/V0 ([3]; 8% alcohol): 1.08
- V/V0 ([3]; 16% alcohol): 0.845
- V/V0 ([3]; 25% alcohol): 0.657
- V/V0 ([3]; 33% alcohol): 0.469
- V/V0 ([3]; 41% alcohol): 0.353
- V/V0 ([3]; 50% alcohol): 0.258
- V/V0 ([4]; 8% additive): 2.09
- V/V0 ([4]; 16% additive): 2.50
- V/V0 ([4]; 33% additive): 1.01
- V/V0 ([4]; 41% additive): 0.70
- V/V0 ([4]; 50% additive): 0.58
- V/V0 ([5]; 8% alcohol): 0.899
- V/V0 ([5]; 16% alcohol): 0.752
- V/V0 ([5]; 25% alcohol): 0.510
- V/V0 ([5]; 41% alcohol): 0.203
- V/V0 ([5]; 50% alcohol): 0.086
- V/V0 ([6]; 8% additive, MOC-D-Nle-Gly-Arg-pNA 0.82 mmol/l, 0.48 μmol/l rFIXa): 3.63
- V/V0 ([6]; 8% additive, MeSO2-D-CHA-Gly-Arg-pNA 1.02 mmol/l, 0.48 μmol/l rFIXa): 3.30
- V/V0 ([6]; 8% additive, MeSO2-D-CHG-Gly-Arg-pNA 1.02 mmol/l, […] rFIXa): 3.33
- V/V0 ([6]; 8% additive, MeSO2-D-HHT-Gly-Arg-pNA 1.02 mmol/l, 0.48 μmol/l rFIXa): 2.99
- V/V0 ([6]; 16% additive, MOC-D-Nle-Gly-Arg-pNA 0.82 mmol/l, 0.48 μmol/l rFIXa): 7.28
- V/V0 ([6]; 16% additive, MeSO2-D-CHA-Gly-Arg-pNA 1.02 mmol/l, 0.48 μmol/l rFIXa): 5.40
- V/V0 ([6]; 16% additive, MeSO2-D-CHG-Gly-Arg-pNA 1.02 mmol/l, […] rFIXa): 6.02
- V/V0 ([6]; 16% additive, MeSO2-D-HHT-Gly-Arg-pNA 1.02 mmol/l, 0.48 μmol/l rFIXa): 5.52
- V/V0 ([6]; 25% additive, MOC-D-Nle-Gly-Arg-pNA 0.82 mmol/l, 0.48 μmol/l rFIXa): 9.95
- V/V0 ([6]; 25% additive, MeSO2-D-CHA-Gly-Arg-pNA 1.02 mmol/l, 0.48 μmol/l rFIXa): 5.38
- V/V0 ([6]; 25% additive, MeSO2-D-CHG-Gly-Arg-pNA 1.02 mmol/l, […] rFIXa): 6.16
- V/V0 ([6]; 25% additive, MeSO2-D-HHT-Gly-Arg-pNA 1.02 mmol/l, 0.48 μmol/l rFIXa): 5.57
- V/V0 ([6]; 33% additive, MOC-D-Nle-Gly-Arg-pNA 0.82 mmol/l, 0.48 μmol/l rFIXa): 7.51
- V/V0 ([6]; 33% additive, MeSO2-D-CHA-Gly-Arg-pNA 1.02 mmol/l, 0.48 μmol/l rFIXa): 4.30
- V/V0 ([6]; 33% additive, MeSO2-D-CHG-Gly-Arg-pNA 1.02 mmol/l, […] rFIXa): 4.50
- V/V0 ([6]; 33% additive, MeSO2-D-HHT-Gly-Arg-pNA 1.02 mmol/l, 0.48 μmol/l rFIXa): 3.35
- V/V0 ([6]; 41% additive, MOC-D-Nle-Gly-Arg-pNA 0.82 mmol/l, 0.48 μmol/l rFIXa): 3.15
- V/V0 ([6]; 50% additive, MeSO2-D-CHA-Gly-Arg-pNA 1.02 mmol/l, 0.48 μmol/l rFIXa): 0.89
- V/V0 ([6]; 50% additive, MeSO2-D-CHG-Gly-Arg-pNA 1.02 mmol/l, […] rFIXa): 0.87
- V/V0 ([6]; 50% additive, MeSO2-D-HHT-Gly-Arg-pNA 1.02 mmol/l, 0.48 μmol/l rFIXa): 0.606
- V/V0 ([6]; 50% additive, MeSO2-D-HHT-Gly-Arg-pNA 1.02 mmol/l, 0.48 μmol/l rFIXa, listed as ethanol): 0.61 and 0.60
- stimulation of the activity of rFIXa ([6]; concentration range of 15-40%): 5-15 fold
- activation of plasma kallikrein (in words) [7]: slight activation
- activation among plasma kallikrein, FXIIa, FXIa, FIXa, FXa and thrombin (in words) ([8]; 0-50% alcohol, MeSO2-D-HHT-Gly-Arg-pNA): only FIXa is activated
- V/V0 ([8]; 8% additive): 3.40
- V/V0 ([8]; 16% additive): 5.46
- V/V0 ([8]; 25% additive): 5.96
- V/V0 ([8]; 33% additive): 4.82
- V/V0 ([8]; 41% additive): 1.69
- V/V0 ([8]; 50% additive): 1.17
